As usually defined, the IC50 is the midpoint of a concentration-inhibition curve.

The subject of one assay is ATF4 translation (ATF4 pathway), SH-SY5Y-ATF4-NanoLuc cells. As to the kind of experiment: ATF4 cell based assay (ATF4 5'-UTR NanoLuc luciferase reporter, Thapsigargin induced cellular stress). The settings on record: SH-SY5Y-ATF4-NanoLuc cells challenged with Thapsigargin for 14-18 hours; average of two or more experimental runs; read-out: average ATF4 pathway inhibitory activity (IC50). The source says: The ATF4 reporter assay measures the effect of Thapsigargin induced cellular stress on ATF4 expression. For this reporter assay, a stable cell line was created by transfecting SH-SY5Y cells with a plasmid containing the NanoLuc® luciferase gene fused to the 5′-UTR of ATF4, under the control of the CMV promoter. The ATF4 5′-UTR contains two open reading frames which mediate the cellular stress-dependent translation of the reporter gene. Clones stably expressing the reporter construct were isolated and selected based on the luminescence response to thapsigargin and inhibition of this signal by test compounds. Briefly, SH-SY5Y-ATF4-NanoLuc cells were challenged with Thapsigargin for 14-18 hours to determine the stress effect with or without test compounds.
Cells were propagated in growth media consisting of 90% DMEM F12 (InVitrogen #11320-033), 10% Fetal Bovine Serum (Gibco #10438-026), 5 mM Glutamax (Gibco #35050-061), 5 mM Hepes, (Gibco #15630-080), and 0.5 mg/ml Geneticin (Gibco #10131-027). Cells were prepared for the assay by removing all media from cells, washing the plated cells with phosphate buffered saline, and detached by adding a solution comprised of 10% Tryple express solution (InVitrogen12604-021) and 90% enzyme-free cell dissociation buffer HANKS base (Gibco 13150-016). The trypsin was deactivated by adding assay media comprised of 90% phenol-red free DMEM F12 (InVitrogen, 11039), 10% Fetal Bovine Serum (Gibco #10438-026), (5 mM Glutamax (Gibco #35050-061), 5 mM Hepes, (Gibco #15630-080), and 0.5 mg/ml Geneticin (Gibco #10131-027). Suspended cells were spun down at 300 g for 5 min, the supernatant was removed and the cell pellet was suspended in warm media (30-37° C.) comprised as above at (1e6 cell/ml).
Assay plates were prepared by adding 250 nL of compound stock solution in 100% DMSO to each well, followed by dispensing 20 microliters/well cell suspension to deliver 15-20 k cell/well. Cells were incubated for 1 hour at 37° C. Then, 5 μL of 1.5 μM or 1 μM of Thapsigargin (final concentration: 200-300 nM) was added to each well of cells. Assay plates containing cells were incubated for 14-18 hours at 37° C.
The measurement of luciferase produced by the ATF4 constructs was measured as follows. Aliquots of the Nano-Glo reagent (Nano-Glo® Luciferase Assay Substrate, Promega, N113, Nano-Glo® Luciferase Assay Buffer, Promega, N112 (parts of Nano-Glo® Luciferase Assay System, N1150) were brought to room temperature, the substrate and buffer were mixed according to manufacturer's instructions. The cell plates were equilibrated to room temperature. 25 microliters/well of the mixed Nano-Glo reagent were dispensed into assay wells and pulse spun to settle contents and the plate was sealed with film. The plates were incubated at room temperature for 1 hour before detecting luminescence on an Envision plate reader.
Compounds of the invention are tested for activity against ATF4 translation in the above assay.
A general note: A reporter such as luciferase makes a cellular process visible.
Take `O=C(COc1ccc(Cl)cc1)NCC1CCN(C(=O)COc2ccc(Cl)nc2)C1` (racemic) [Example 20, 2-(4-chlorophenoxy)-N-((1-(2-((6-chloropyridin-3-yl)oxy)acetyl)pyrrolidin-3-yl)methyl)acetamide]: the IC50 was 1000 to 10000 nM.

On to `O=C(COc1ccc(Cl)cc1)NCC1CCN(C(=O)COc2ccc(Cl)nc2)C1` (single isomer, unassigned) [Example 11, 2-(4-chlorophenoxy)-N-((1-(2-((6-chloropyridin-3-yl)oxy)acetyl)pyrrolidin-3-yl)methyl)acetamide], for which the IC50 is 1000 to 10000 nM.

For `O=C(COc1ccc(Cl)cc1)NC1C[C@@H]2CN(C(=O)COc3ccc(Cl)cc3)CC12` (stereo in doubt) [Example 32, 2-(4-chlorophenoxy)-N-((1S,5R)-3-(2-(4-chlorophenoxy)acetyl)-3-azabicyclo[3.2.0]heptan-6-yl)acetamide], the IC50 was less than 100 nM.

For `O=C(COc1ccc(Cl)cc1)NCC1CC(=O)N(CCOc2ccc(Cl)cc2)C1` (stereo not drawn) [Example 3, 2-(4-chlorophenoxy)-N-((1-(2-(4-chlorophenoxy)ethyl)-5-oxopyrrolidin-3-yl)methyl)acetamide], the IC50 is less than 100 nM.

Take `O=C(COc1ccc(Cl)cc1)NCC1CCN(CC(=O)Nc2ccc(Cl)cc2)C1` (stereo not drawn) [Example 4, 2-(4-chlorophenoxy)-N-((1-(2-((4-chlorophenyl)amino)-2-oxoethyl)pyrrolidin-3-yl)methyl)acetamide]: the IC50 is less than 100 nM.

Regarding `O=C(COc1ccc(Cl)cc1)N1CC2CN(C(=O)COc3ccc(Cl)cc3)CC2C1` (stereo not drawn) [Example 6, 1,1′-(tetrahydropyrrolo[3,4-c]pyrrole-2,5(1H,3H)-diyl)bis(2-(4-chlorophenoxy)ethanone)], the IC50 is 1000 to 10000 nM.

For `O=C(COc1ccc(Cl)cc1)NC1CCN(C(=O)COc2ccc(Cl)cc2)C1` (stereo not drawn) [Example 7, 2-(4-chlorophenoxy)-N-(1-(2-(4-chlorophenoxy)acetyl)pyrrolidin-3-yl)acetamide], the IC50 is 1000 to 10000 nM.

`O=C(COc1ccc(Cl)cc1)NCC1CCN(C(=O)C2CCc3cc(Cl)ccc3O2)C1` (stereo not drawn) [Example 8, N-((1-(6-chlorochroman-2-carbonyl)pyrrolidin-3-yl)methyl)-2-(4-chlorophenoxy)acetamide]: the IC50 is less than 100 nM.

Consider `O=C(COc1ccc(Cl)cc1)NCC1CCN(C(=O)C2Cc3cc(Cl)ccc3O2)C1` (stereo not drawn) [Example 9, N-((1-(5-chloro-2,3-dihydrobenzofuran-2-carbonyl)pyrrolidin-3-yl)methyl)-2-(4-chlorophenoxy)acetamide], for which the IC50 fell in the range of 101 to 1000 nM.

For the molecule `O=C(COc1ccc(Cl)cc1)NCC1CCN(C(=O)COc2cncc(Cl)c2)C1` (stereo not drawn) [Example 10, 2-(4-chlorophenoxy)-N-((1-(2-((5-chloropyridin-3-yl)oxy)acetyl)pyrrolidin-3-yl)methyl)acetamide], the IC50 was in the range of 1000 to 10000 nM.

As to `O=C(COc1ccc(Cl)cc1)NCC1CCN(CCOc2ccc(Cl)nc2)C1` (stereo not drawn) [Example 13, 2-(4-chlorophenoxy)-N-((1-(2-((6-chloropyridin-3-yl)oxy)ethyl)pyrrolidin-3-yl)methyl)acetamide], the half-maximal inhibitory concentration (IC50) is 1000 to 10000 nM.

In the case of `O=C(COc1ccc(Cl)cc1)NCC1CCN(C(=O)CCOc2ccc(Cl)cc2)C1` (stereo not drawn) [Example 14, 2-(4-chlorophenoxy)-N-((1-(3-(4-chlorophenoxy)propanoyl)pyrrolidin-3-yl)methyl)acetamide], the IC50 is less than 100 nM.

Regarding `O=C(COc1ccc(Cl)cc1)NCC1CCN(C(=O)OCCc2ccc(Cl)cc2)C1` (stereo not drawn) [Example 15, 4-chlorophenethyl 3-((2-(4-chlorophenoxy)acetamido)methyl)pyrrolidine-1-carboxylate], the IC50 was less than 100 nM.

Turning to `O=C(COc1ccc(Cl)cc1)NCCC1CCN(C(=O)COc2ccc(Cl)cc2)C1` (stereo not drawn) [Example 16, 2-(4-chlorophenoxy)-N-(2-(1-(2-(4-chlorophenoxy)acetyl)pyrrolidin-3-yl)ethyl)acetamide], the IC50 lay within 101 to 1000 nM.

For the molecule `CC1(CNC(=O)COc2ccc(Cl)cc2)CCN(C(=O)COc2ccc(Cl)cc2)C1` (stereo not drawn) [Example 17, 2-(4-chlorophenoxy)-N-((1-(2-(4-chlorophenoxy)acetyl)-3-methylpyrrolidin-3-yl)methyl)acetamide], the IC50 was 1000 to 10000 nM.

For the molecule `O=C(NCC1CCN(C(=O)COc2ccc(Cl)cc2)C1)C1Cc2cc(Cl)ccc2O1` (stereo not drawn) [Example 18, 5-chloro-N-((1-(2-(4-chlorophenoxy)acetyl)pyrrolidin-3-yl)methyl)-2,3-dihydrobenzofuran-2-carboxamide], the IC50 fell in the range of 101 to 1000 nM.

Take `O=C(COc1ccc(Cl)nc1)NCC1CCN(C(=O)COc2ccc(Cl)cc2)C1` (stereo not drawn) [Example 19, N-((1-(2-(4-chlorophenoxy)acetyl)pyrrolidin-3-yl)methyl)-2-((6-chloropyridin-3-yl)oxy)acetamide]: the IC50 lay within 1000 to 10000 nM.

For `O=C(COc1ccc(Cl)cc1)N1CCC(CNCCOc2ccc(Cl)cc2)C1` (stereo not drawn) [Example 21, 2-(4-chlorophenoxy)-1-(3-(((2-(4-chlorophenoxy)ethyl)amino)methyl)pyrrolidin-1-yl)ethanone], the 50% inhibitory concentration (IC50) lay within 101 to 1000 nM.

With `O=C(NCC1CCN(C(=O)COc2ccc(Cl)cc2)C1)C1CCc2cc(Cl)ccc2O1` (stereo not drawn) [Example 22, 6-chloro-N-((1-(2-(4-chlorophenoxy)acetyl)pyrrolidin-3-yl)methyl)chroman-2-carboxamide], the IC50 was less than 100 nM.

Regarding `O=C(COc1ccc(Cl)cc1)NC1CCC2(CC1)CCN(C(=O)COc1ccc(Cl)cc1)C2` (stereo not drawn) [Example 23, 2-(4-chlorophenoxy)-N-(2-(2-(4-chlorophenoxy)acetyl)-2-azaspiro[4.5]decan-8-yl)acetamide], the concentration for half-maximal inhibition (IC50) was less than 100 nM.

Regarding `O=C(COc1ccc(Cl)cc1)NCC1CCN(C(=O)N2CCc3cc(Cl)ccc3C2)C1` (stereo not drawn) [Example 24, N-((1-(6-chloro-1,2,3,4-tetrahydroisoquinoline-2-carbonyl)pyrrolidin-3-yl)methyl)-2-(4-chlorophenoxy)acetamide], the IC50 is 101 to 1000 nM.

As to `O=C(COc1ccc(Cl)cc1)N1CCC2(CCN(C(=O)COc3ccc(Cl)cc3)C2)C1` [Example 26, 1,1′-(2,7-diazaspiro[4.4]nonane-2,7-diyl)bis(2-(4-chlorophenoxy)ethanone)], the 50% inhibitory concentration (IC50) lay in the range of 1000 to 10000 nM.

On to `O=C(COc1ccc(Cl)cc1)N[C@H]1[C@@H]2CN(CCCOc3ccc(Cl)cc3)C[C@@H]21` [Example 28, 2-(4-chlorophenoxy)-N-((1R,5S,6s)-3-(3-(4-chlorophenoxy)propyl)-3-azabicyclo[3.1.0]hexan-6-yl)acetamide], for which the IC50 is less than 100 nM.

For the molecule `O=C(COc1ccc(Cl)cc1)NC[C@H]1CCN(C(=O)COc2ccc(Cl)cc2)C1` [Example 30], the IC50 was 252 nM.

As to `O=C(COc1ccc(Cl)cc1)N[C@H]1[C@@H]2CN(C(=O)COc3ccc(Cl)cc3)C[C@@H]21` [Example 31, 2-(4-chlorophenoxy)-N-((1R,5S,6s)-3-(2-(4-chlorophenoxy)acetyl)-3-azabicyclo[3.1.0]hexan-6-yl)acetamide], the IC50 is 101 to 1000 nM.

On to `O=C(COc1ccc(Cl)cc1)NOC1CCN(C(=O)COc2ccc(Cl)cc2)C1` (stereo not drawn) [Example 33, 2-(4-chlorophenoxy)-N-((1-(2-(4-chlorophenoxy)acetyl)pyrrolidin-3-yl)oxy)acetamide], for which the concentration for half-maximal inhibition (IC50) is 101 to 1000 nM.

The assay is the same for the next values; noted with them: read-out: average ATF4 pathway inhibitory activity (IC50).
With `O=C(COc1ccc(Cl)cc1)NCC1CCN(C(=O)COc2ccc(Cl)cc2)C1` (stereo not drawn) [Example 1, 2-(4-chlorophenoxy)-N-((1-(2-(4-chlorophenoxy)acetyl)pyrolidin-3-yl)methyl)acetamide], the IC50 fell in the range of 101 to 1000 nM.

As for `O=C(COc1ccc(Cl)cc1)NCC1CCN(CCOc2ccc(Cl)cc2)C1` (stereo not drawn) [Example 2, 2-(4-chlorophenoxy)-N-((1-(2-(4-chlorophenoxy)ethyl)pyrrolidin-3-yl)methyl)acetamide], the IC50 was less than 100 nM.

Take `O=C(COc1ccc(Cl)cc1)NC[C@@H]1CCN(C(=O)COc2ccc(Cl)cc2)C1` [Example 29, (S)-2-(4-chlorophenoxy)-N-((1-(2-(4-chlorophenoxy)acetyl)pyrrolidin-3-yl)methyl)acetamide]: the IC50 was in the range of 101 to 1000 nM.

For the molecule `O=C(COc1ccc(Cl)cc1)NC[C@H]1CCN(C(=O)COc2ccc(Cl)cc2)C1` [Example 30], the IC50 was in the range of 101 to 1000 nM.

Values taken from US10851053B2, “Chemical compounds” (GlaxoSmithKline Intellectual Property Development Limited, priority 2016, dated 2020).
